From ChEMBL document CHEMBL1909046, “DrugMatrix in vitro pharmacology data”

Experiments:
[1] = target: T1, Angiotensin-converting enzyme (Oryctolagus cuniculus, UniProt P12822); type: tissue-based, Lung;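 note: enzymatic inhibition of angiotensin-converting enzyme measured with FAPGG as the substrate; in other assays of this panel Not Active means under 50% inhibition at 10 µM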
T1 sequence (P12822 whole entry): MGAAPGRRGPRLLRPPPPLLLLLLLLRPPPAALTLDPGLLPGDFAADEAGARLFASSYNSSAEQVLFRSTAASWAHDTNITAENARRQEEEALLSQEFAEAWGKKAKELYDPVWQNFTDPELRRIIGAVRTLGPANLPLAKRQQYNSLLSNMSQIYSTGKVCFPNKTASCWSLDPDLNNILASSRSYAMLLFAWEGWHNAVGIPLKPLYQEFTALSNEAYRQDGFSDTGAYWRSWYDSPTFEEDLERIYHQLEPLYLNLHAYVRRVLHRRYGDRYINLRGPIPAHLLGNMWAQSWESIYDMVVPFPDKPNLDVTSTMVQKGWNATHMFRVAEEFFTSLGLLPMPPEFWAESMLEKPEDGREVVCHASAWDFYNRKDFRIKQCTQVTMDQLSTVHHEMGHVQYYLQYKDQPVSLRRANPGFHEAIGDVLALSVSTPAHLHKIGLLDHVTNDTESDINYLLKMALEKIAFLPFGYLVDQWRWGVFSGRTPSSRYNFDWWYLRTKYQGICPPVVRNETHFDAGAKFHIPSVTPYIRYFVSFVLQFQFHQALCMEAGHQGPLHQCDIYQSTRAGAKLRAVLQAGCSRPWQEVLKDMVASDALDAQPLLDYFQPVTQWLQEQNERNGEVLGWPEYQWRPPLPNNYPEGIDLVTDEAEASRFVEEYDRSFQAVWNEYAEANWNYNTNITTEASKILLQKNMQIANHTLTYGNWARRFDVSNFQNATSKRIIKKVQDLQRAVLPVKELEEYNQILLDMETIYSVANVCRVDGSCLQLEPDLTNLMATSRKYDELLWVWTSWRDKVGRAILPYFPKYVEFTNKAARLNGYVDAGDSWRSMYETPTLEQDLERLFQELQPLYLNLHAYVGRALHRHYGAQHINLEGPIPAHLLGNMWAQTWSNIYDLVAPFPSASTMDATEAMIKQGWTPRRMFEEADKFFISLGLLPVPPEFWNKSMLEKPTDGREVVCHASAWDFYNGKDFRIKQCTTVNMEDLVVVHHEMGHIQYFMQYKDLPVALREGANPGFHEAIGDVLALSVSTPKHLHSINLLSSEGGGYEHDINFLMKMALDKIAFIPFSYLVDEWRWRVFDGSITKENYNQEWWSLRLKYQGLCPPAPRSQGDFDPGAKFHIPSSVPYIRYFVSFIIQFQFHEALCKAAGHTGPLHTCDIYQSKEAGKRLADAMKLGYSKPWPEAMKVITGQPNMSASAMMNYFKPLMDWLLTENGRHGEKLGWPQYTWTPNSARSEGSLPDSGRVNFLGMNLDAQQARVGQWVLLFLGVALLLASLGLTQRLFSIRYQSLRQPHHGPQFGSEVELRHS

Vasopressin V1a receptor = Vasopressin V1a receptor (Homo sapiens, UniProt P37288); type: cell membranes, Membrane; settings: hek293; note: in other assays of this panel Not Active means under 50% inhibition at 10 µM
Vasopressin V1a receptor, sequence (P37288 whole entry): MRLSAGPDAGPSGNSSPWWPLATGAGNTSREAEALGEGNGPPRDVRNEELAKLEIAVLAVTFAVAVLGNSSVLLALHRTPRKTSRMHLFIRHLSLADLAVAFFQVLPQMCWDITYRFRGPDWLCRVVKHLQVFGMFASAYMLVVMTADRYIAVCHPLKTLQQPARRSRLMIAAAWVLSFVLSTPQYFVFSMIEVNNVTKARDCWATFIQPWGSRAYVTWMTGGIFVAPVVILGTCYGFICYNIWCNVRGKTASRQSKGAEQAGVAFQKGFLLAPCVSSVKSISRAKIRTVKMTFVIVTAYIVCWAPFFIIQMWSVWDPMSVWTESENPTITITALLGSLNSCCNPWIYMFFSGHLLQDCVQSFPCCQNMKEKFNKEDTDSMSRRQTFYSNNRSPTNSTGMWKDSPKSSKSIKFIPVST

[2] = target: T2, Amine oxidase [flavin-containing] A (Homo sapiens, UniProt P21397); assay: DRUGMATRIX: Monoamine Oxidase MAO-A enzyme inhibition (substrate: Kynuramine); set-up: species or system BTI-TN-5B1-4; settings: Not Active = under 50% inhibition at 10 µM
T2 sequence (P21397 whole entry): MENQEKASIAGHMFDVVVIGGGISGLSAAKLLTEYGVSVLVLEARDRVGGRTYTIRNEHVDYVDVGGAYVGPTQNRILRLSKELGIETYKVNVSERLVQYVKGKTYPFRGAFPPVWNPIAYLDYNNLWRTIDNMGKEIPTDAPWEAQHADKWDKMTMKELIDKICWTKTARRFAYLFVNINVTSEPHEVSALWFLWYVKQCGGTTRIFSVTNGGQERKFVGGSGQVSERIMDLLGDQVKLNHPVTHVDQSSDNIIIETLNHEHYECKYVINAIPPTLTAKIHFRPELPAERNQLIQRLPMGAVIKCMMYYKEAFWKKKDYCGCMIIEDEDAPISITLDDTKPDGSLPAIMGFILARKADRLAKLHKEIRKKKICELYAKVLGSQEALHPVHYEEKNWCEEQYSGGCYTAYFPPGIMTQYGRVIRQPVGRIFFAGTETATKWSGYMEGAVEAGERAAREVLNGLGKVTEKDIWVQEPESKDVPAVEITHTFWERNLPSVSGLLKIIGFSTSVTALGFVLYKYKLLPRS

[3] = DRUGMATRIX: Calcium Channel Type L, Phenylalkylamine radioligand binding (ligand: [3H] (-)-Desmethoxyverapamil (D-888)); type: cell membranes, Rattus norvegicus, Wistar, Brain, Membrane; settings: Not Active = under 50% inhibition at 10 µM
Cytochrome P450 2A6 = target: T3, Cytochrome P450 2A6 (Homo sapiens, UniProt P11509); settings: bti-tn-5b1-4; note: in other assays of this panel Not Active means under 50% inhibition at 10 µM
T3 sequence (P11509 whole entry): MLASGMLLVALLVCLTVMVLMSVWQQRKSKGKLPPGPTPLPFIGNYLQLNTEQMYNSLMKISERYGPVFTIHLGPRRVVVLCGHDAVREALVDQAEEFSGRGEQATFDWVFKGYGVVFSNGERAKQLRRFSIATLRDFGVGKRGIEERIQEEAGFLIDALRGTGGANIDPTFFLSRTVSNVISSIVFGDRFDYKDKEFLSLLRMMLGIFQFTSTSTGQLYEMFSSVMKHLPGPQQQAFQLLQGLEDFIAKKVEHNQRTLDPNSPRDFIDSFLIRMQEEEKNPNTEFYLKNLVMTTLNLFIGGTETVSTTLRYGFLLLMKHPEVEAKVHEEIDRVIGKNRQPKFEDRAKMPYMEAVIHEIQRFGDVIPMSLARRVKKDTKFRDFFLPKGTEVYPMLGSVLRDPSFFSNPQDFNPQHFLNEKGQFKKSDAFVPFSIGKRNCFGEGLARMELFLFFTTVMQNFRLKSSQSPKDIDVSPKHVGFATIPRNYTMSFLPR

[4] = target: C-C chemokine receptor type 2 (Homo sapiens, UniProt P41597); type: cell membranes, Membrane; settings: cho-k1; note: in other assays of this panel Not Active means under 50% inhibition at 10 µM
C-C chemokine receptor type 2, sequence (P41597 whole entry): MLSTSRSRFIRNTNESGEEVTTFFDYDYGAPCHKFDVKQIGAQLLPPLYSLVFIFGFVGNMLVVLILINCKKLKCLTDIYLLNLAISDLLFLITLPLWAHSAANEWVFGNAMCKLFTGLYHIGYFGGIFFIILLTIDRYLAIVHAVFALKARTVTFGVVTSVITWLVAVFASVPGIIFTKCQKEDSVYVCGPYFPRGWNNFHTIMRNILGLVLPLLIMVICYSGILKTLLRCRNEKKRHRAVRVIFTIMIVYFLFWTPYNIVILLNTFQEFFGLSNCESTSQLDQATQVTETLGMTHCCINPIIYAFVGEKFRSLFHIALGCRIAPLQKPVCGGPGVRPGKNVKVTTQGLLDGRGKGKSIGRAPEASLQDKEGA

Adenosine receptor A3 = target: T4, Adenosine receptor A3 (Homo sapiens, UniProt P0DMS8); type: cell membranes, CHO-K1, Membrane; settings: cho-k1
T4 sequence (P0DMS8 whole entry): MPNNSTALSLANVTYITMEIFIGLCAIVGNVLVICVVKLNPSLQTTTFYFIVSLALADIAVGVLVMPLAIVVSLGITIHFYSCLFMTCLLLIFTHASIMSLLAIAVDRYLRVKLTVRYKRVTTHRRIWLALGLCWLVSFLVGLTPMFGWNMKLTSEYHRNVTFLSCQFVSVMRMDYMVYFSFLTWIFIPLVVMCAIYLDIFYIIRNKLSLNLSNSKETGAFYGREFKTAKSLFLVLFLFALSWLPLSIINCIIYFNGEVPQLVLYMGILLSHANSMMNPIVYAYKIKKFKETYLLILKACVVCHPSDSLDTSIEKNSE

Row | Compound | IC50 [1] | IC50 (Vasopressin V1a receptor) | IC50 ([2]; bti-tn-5b1-4) | IC50 [3] | Ki [3] | IC50 (Cytochrome P450 2A6) | Ki (Cytochrome P450 2A6) | IC50 [4] | IC50 (Adenosine receptor A3) | IC50 ([2]; read-out: IC50) [nM]
1 | C[C@H]1C[C@@H]2[C@H]([C@@H](O)C[C@@]3(C)[C@H]2CC[C@]3(O)C(=O)CO)[C@@]2(C)C=CC(=O)C=C12 [METHYLPREDNISOLONE] | Not Active | Not Active | Not Active | Not Active | Not Active | Not Active | Not Active | Not Active | Not Active | –
2 | Cc1cccc(C)c1OCC(C)N (stereo not drawn) [MEXILETINE] | Not Active | Not Active | Not Active | Not Active | Not Active | Not Active | Not Active | Not Active | Not Active | –
3 | Nc1cc(N2CCCCC2)nc(N)[n+]1[O-] [MINOXIDIL] | Not Active | Not Active | Not Active | Not Active | Not Active | Not Active | Not Active | Not Active | Not Active | –
4 | CO[C@H]1/C=C/O[C@@]2(C)Oc3c(C)c(O)c4c(O)c(c(/C=N/N5CCN(C6CCCC6)CC5)c(O)c4c3C2=O)NC(=O)/C(C)=C\C=C\[C@H](C)[C@H](O)[C@@H](C)[C@@H](O)[C@@H](C)[C@H](OC(C)=O)[C@@H]1C [RIFAPENTINE] | Not Active | Not Active | Not Active | Not Active | Not Active | Not Active | Not Active | Not Active | Not Active | –
5 | CCCCOc1cc(CC2CNC(=O)N2)ccc1OC (stereo not drawn) [RO-201724] | Not Active | Not Active | Not Active | Not Active | Not Active | Not Active | Not Active | Not Active | Not Active | –
6 | CC[C@@H](C(=O)[C@@H](C)[C@@H](O)[C@H](C)[C@@H]1O[C@@H]([C@@H](CC)C(=O)O)CC[C@@H]1C)[C@H]1O[C@]2(C=C[C@@H](O)[C@]3(CC[C@@](C)([C@H]4CC[C@](O)(CC)[C@H](C)O4)O3)O2)[C@H](C)C[C@@H]1C [SALINOMYCIN] | Not Active | Not Active | Not Active | Not Active | Not Active | Not Active | Not Active | Not Active | Not Active | –
7 | O=C(Oc1ccccc1C(=O)O)c1ccccc1O [SALSALATE] | Not Active | Not Active | Not Active | Not Active | Not Active | Not Active | Not Active | Not Active | Not Active | –
8 | O=C(O)c1cn(-c2ccc(F)cc2)c2cc(N3CCNCC3)c(F)cc2c1=O [SARAFLOXACIN] | Not Active | Not Active | Not Active | Not Active | Not Active | Not Active | Not Active | Not Active | Not Active | –
9 | CC(C)NCC(O)c1ccc(NS(C)(=O)=O)cc1 (stereo not drawn) [SOTALOL] | Not Active | Not Active | Not Active | Not Active | Not Active | Not Active | Not Active | Not Active | Not Active | –
10 | O.O.O.O.O.O.[Cl-].[Cl-].[Sr+2] [STRONTIUM CHLORIDE HEXAHYDRATE] | Not Active | Not Active | Not Active | Not Active | Not Active | Not Active | Not Active | Not Active | Not Active | –
11 | O=C1C(CC[S+]([O-])c2ccccc2)C(=O)N(c2ccccc2)N1c1ccccc1 (stereo not drawn) [SULFINPYRAZONE] | Not Active | Not Active | Not Active | Not Active | Not Active | Not Active | Not Active | Not Active | Not Active | –
12 | NC(=O)N1C(=O)/C(=C(\O)c2cccs2)c2cc(Cl)ccc21 [TENIDAP] | Not Active | Not Active | Not Active | Not Active | Not Active | Not Active | Not Active | Not Active | Not Active | –
13 | COc1cc2nc(N3CCN(C(=O)C4CCCO4)CC3)nc(N)c2cc1OC (stereo not drawn) [TERAZOSIN] | Not Active | Not Active | Not Active | Not Active | Not Active | Not Active | Not Active | Not Active | Not Active | –
14 | CN(C/C=C/C#CC(C)(C)C)Cc1cccc2ccccc12 [TERBINAFINE] | Not Active | Not Active | Not Active | Not Active | Not Active | Not Active | Not Active | Not Active | Not Active | –
15 | CCCCNc1ccc(C(=O)OCCN(C)C)cc1 [TETRACAINE] | Not Active | Not Active | – | Not Active | Not Active | Not Active | Not Active | Not Active | Not Active | 317
16 | Cn1c(=O)c2nc[nH]c2n(C)c1=O.O [THEOPHYLLINE] | Not Active | Not Active | Not Active | Not Active | Not Active | Not Active | Not Active | Not Active | Not Active | –
17 | CS(=O)(=O)c1ccc([C@@H](O)[C@@H](CO)NC(=O)C(Cl)Cl)cc1 [THIAMPHENICOL] | Not Active | Not Active | Not Active | Not Active | Not Active | Not Active | Not Active | Not Active | Not Active | –
